Experiments:
[1] = test system: rainbow trout (Oncorhynchus mykiss); assay: Surface area-normalized mucus-water and gill-water distribution coefficients; conditions: for Gill-water distribution coefficient (DG-W): from average concentrations in gills and water, calculated gill surface; for Mucus-water distribution coefficient (DMuc-W): from average concentrations in mucus and water
Experimental: For each mixture, the syringe pump was started in an aquarium containing no fish. After 16 h, to allow the concentrations to stabilize, 12 rainbow trout were added. After 7 d of exposure, the fish in the exposure aquaria as well as several unexposed (control) fish were sacrificed. Following stunning, blood was collected with a heparinized syringe from the caudal vein into a 2 mL Eppendorf tube. The fish were weighed and photographed, and the length was measured. The outer surface area of the fish was estimated from the fish weight according to O’Shea et al.[27] [drawing 1] 1
The gill surface area was estimated from the fish weight according to the equation specific for O. mykiss from a report by Hughes,[28] taken from ref ([29]) [drawing 2] 2
Because the mass of extracted mucus was not determined, the concentrations in mucus were normalized to the estimated fish’s total surface area (eq 1) excluding the head, which was not rinsed.
Surface area-normalized gill–water distribution coefficients (DG–W) were calculated from the average concentrations measured in gills and water, and a calculated gill surface based on rainbow trout specific scaling factors (eq 2). […] Unlike the skin, the gills were not rinsed with methanol, so the gill samples included gill mucus.

[2] = test system: rainbow trout (Oncorhynchus mykiss); assay: Tissue concentrations in rainbow trout after 7 d exposure via water (two mixtures); assay type: in vivo
Experimental: (§1) The study was conducted with rainbow trout (Oncorhynchus mykiss) weighing between 98 and 165 g. The fish were purchased from Nordic trout Sweden AB and held in the aquaria facility prior to the experiment in February 2018. Ethical approval for the experiments was obtained from Stockholms djurförsöksetiska nämnd (decision 9967-2017). The experiments were conducted in 300 L fiberglass aquaria with a water renewal rate of 1.3 L min^–1 (MIX 1) and 1.45 L min^–1 (MIX 2). The water temperature was 10 °C and the pH 7.5. The water hardness was estimated to be 1.1 mM Ca^2+ based on information from the water supplier. The aquaria water was circulated through a filter of polyester wool at 800–1200 L h^–1 with an Eheim 2273 Pro 4+ pump. The outflow from the filter pump was placed above the water surface, providing for aeration. The lighting was dim and programmed on a 12 h light/12 h dark cycle. The fish were fed fish food pellets supplied by the fish farm at 1.0% of their body weight per day.
(§2) A solution of the test chemical mixture in methanol was infused continuously (3.5 and 3.8 μL min^–1 for MIX 1 and MIX 2, respectively) into the water inflow using a syringe pump. The intended concentrations of the chemicals in water ranged from 2.5 to 50 μg L^–1 (Table 1). They were selected with the help of modeled estimates of the BCF that were based on reported and extrapolated membrane water partition coefficients[7] and biotransformation rate constants predicted with quantitative structure activity relationships (QSARs)[24],[25] to parameterize the BIONIC model.[26] Based on these estimates, we selected an exposure concentration which would result in concentrations in fish that were clearly above the limit of quantification (LOQ) of the analytical method, while trying to keep the quantifiable exposure concentration as low as possible to minimize the risk of toxic effects and micelle formation (see comparison of intended concentrations with available toxicological data in Table S4).
(§3) The surface of the fish posterior of the gills was rinsed with 100% methanol to remove test chemical residues adsorbed to the outer surface of the skin and absorbed in the skin mucus. […] The fish were dissected and the liver, the kidney, the gills, and the remaining contents of the abdominal cavity were taken and weighed. Skin and muscle samples were prepared from the upper dorsal region on semi-frozen fish after the methanol rinse had removed the mucus. The main part of the subcutaneous fat tissue was included in the muscle samples rather than in the skin samples. All samples were stored frozen at −20 °C until further analysis.
(§4) For 6 fish from each aquarium and 3 control fish, samples of muscle, skin, liver, and gills were homogenized in a bullet blender (muscle and liver) (MiniG, SPEXsamplePrep) or in a cryo-mill (skin and gill) (Mixer mill cryomill, Retsch GmbH). A sub-sample of 0.5–1.2 g of the homogenate was extracted twice in methanol (4 mL, 50 °C, ultra-sound, 60 min), employing centrifugation at 4000 rpm for phase separation. Further information on the extraction efficiency of this method can be found in the Supporting Information (Table S5 and accompanying text). Isotope labeled standards of Q10 (D21), Q14 (D29), and P16 (D33) were added to a portion of the extract corresponding to 12–75 mg of the sample. The extract volume was adjusted to 3 mL with methanol and then cleaned up on a weak cationic exchange SPE column (WCX, 60 mg, 30 μm particle size, waters). Solvent elution was performed by gravity flow. The column was conditioned with 2 mL of methanol, followed by 2 mL of Milli-Q water adjusted to pH 7 with ammonium hydroxide to activate the ion exchange. The sample extract was loaded onto the column, and it was subsequently rinsed with 20 mL of methanol.

[3] = as above; assay type: in vivo, Oncorhynchus mykiss; conditions: rainbow trout (Oncorhynchus mykiss), in vivo
Experimental: as §1, §2, §3, §4

[4] = test system: rainbow trout (Oncorhynchus mykiss); assay: Apparent bioconcentration factor at end of 7-day exposure; assay type: in vivo
Experimental: Apparent BCFs (BCFapp) at the end of the 7-day exposure were calculated by dividing the surfactant body burden (including mucus) by the fish mass, and dividing this by the average measured concentration in water samples taken during the exposure phase. The BCFapp values ranged from 0.1 to 1260 (Table S18). Given the short exposure period, it is possible that the fish in this study had not approached steady state, in particular with respect to the distribution between water and internal tissues and between water and skin, and that the steady-state BCFs are higher. […] We note that some improvements in the methodology would be helpful, particularly with respect to the stability of the aqueous exposure concentration of the longest chain surfactants. Working with mixtures of analogue cationic surfactants allowed for consistent evaluation of differences in accumulation trends due to structural features.

[5] = ref Timmer and Droge (2017); cited from earlier work
[6] = rainbow trout (Oncorhynchus mykiss), in vivo, 7 d
[7] = rainbow trout (Oncorhynchus mykiss), in vivo, 7 d, pH 7.5
[8] = end of 7-day exposure, body burden including mucus
[9] = mean of exposed fish, Table S13
[10] = wet weight, mean of six fish (RSD %), 7 d exposure, Q10, Q14 below LOQ

## CCCCCCCCCN [P9, Nonylamine]
[1]
  Gill-water distribution coefficient (DG-W): 0.44 mLcm-2
  Mucus-water distribution coefficient (DMuc-W): 0.47 mL cm-2
[2]; [6]
  Concentration in gills: 1200 (12) ng g^–1
  Concentration in liver: 1710 (40) ng g^–1
  Concentration in skin: 132 (36) ng g^–1
[2]; [7]
  Concentration in blood: 46 (29) ng g^–1
  Concentration in muscle: 27 (39) ng g^–1
  Concentration in skin, per surface area: 11.6 ng cm-2
[3]; pH 7.5, Concentration in gills
  concentration at 7 d: 1040 ng/g
[3]; pH 7.5, Concentration in skin
  concentration at 7 d: 70 ng/g
[4]; [8]
  Apparent bioconcentration factor (BCFapp): 3.3 L kg-1 wet weight
[5]
  Log KMW,C (membrane-water partition coefficient of the charged form): 3.72

## CCCCCCCCCCCCN [P12, Dodecylamine]
[1]
  Gill-water distribution coefficient (DG-W): 28 mLcm-2
  Mucus-water distribution coefficient (DMuc-W): 16.3 mL cm-2
[2]; [6]
  Concentration in gills: 20 000 (10) ng g^–1
  Concentration in liver: 42 000 (15) ng g^–1
  Concentration in skin: 3900 (25) ng g^–1
[2]; [7]
  Concentration in blood: 770 (26) ng g^–1
  Concentration in muscle: 630 (28) ng g^–1
  Concentration in skin, per surface area: 310 ng cm-2
[3]; Concentration in skin
  concentration at 7 d: 4630 ng/g
[3]; pH 7.5, Concentration in blood
  concentration at 7 d: 558 ng/g
[3]; pH 7.5, Concentration in gills
  concentration at 7 d: 18500 ng/g
[3]; pH 7.5, Concentration in liver
  concentration at 7 d: 35600 ng/g
[3]; pH 7.5, Concentration in skin
  concentration at 7 d: 2720 ng/g
[4]; [7]
  Apparent bioconcentration factor (BCFapp): 230 L kg-1 wet weight
[5]
  Log KMW,C (membrane-water partition coefficient of the charged form): 5.58

## CCCCCCCCCN(C)C [T9, N,N-dimethylnonylamine]
[1]
  Gill-water distribution coefficient (DG-W): 0.30 mLcm-2
  Mucus-water distribution coefficient (DMuc-W): 0.29 mL cm-2
[2]; exposed fish #1
  Concentration in blood: 305 ng/g
  Concentration in gills: 1126 ng/g
  Concentration in gills, surface area-normalized: 15.7 ng cm-2
  Concentration in liver: 3588 ng/g
  Concentration in mucus: 19 ng cm-2
  Concentration in muscle: 173 ng/g
  Concentration in skin, per surface area: 48 ng cm-2
[2]; exposed fish #2
  Concentration in blood: 334 ng/g
  Concentration in gills: 1320 ng/g
  Concentration in gills, surface area-normalized: 17.4 ng cm-2
  Concentration in liver: 2592 ng/g
  Concentration in mucus: 17 ng cm-2
  Concentration in muscle: 173 ng/g
  Concentration in skin, per surface area: 32 ng cm-2
[2]; exposed fish #3
  Concentration in blood: 475 ng/g
  Concentration in gills: 1432 ng/g
  Concentration in liver: 2863 ng/g
  Concentration in mucus: 15 ng cm-2
  Concentration in muscle: 200 ng/g
  Concentration in skin, per surface area: 28 ng cm-2
[2]; exposed fish #4
  Concentration in blood: 251 ng/g
  Concentration in gills: 1130 ng/g
  Concentration in gills, surface area-normalized: 17.5 ng cm-2
  Concentration in liver: 1593 ng/g
  Concentration in mucus: 18 ng cm-2
  Concentration in muscle: 146 ng/g
  Concentration in skin, per surface area: 32 ng cm-2
[2]; exposed fish #5
  Concentration in blood: 323 ng/g
  Concentration in gills: 1240 ng/g
  Concentration in gills, surface area-normalized: 17.6 ng cm-2
  Concentration in liver: 5463 ng/g
  Concentration in mucus: 12 ng cm-2
  Concentration in muscle: 158 ng/g
  Concentration in skin, per surface area: 28 ng cm-2
[2]; exposed fish #6
  Concentration in blood: 291 ng/g
  Concentration in gills: 869 ng/g
  Concentration in gills, surface area-normalized: 11.3 ng cm-2
  Concentration in liver: 7230 ng/g
  Concentration in mucus: 9 ng cm-2
  Concentration in muscle: 111 ng/g
  Concentration in skin, per surface area: 19 ng cm-2
[2]; mean of exposed fish, Table S10
  Concentration in blood: 330 ng/g
[2]; mean of exposed fish, Table S11
  Concentration in muscle: 160 ng/g
[2]; mean of exposed fish, Table S12
  Concentration in liver: 3887 ng/g
[2]; [9]
  Concentration in gills: 1186 ng/g
  Concentration in gills, surface area-normalized: 15.9 ng cm-2
[2]; mean of exposed fish, Table S14
  Concentration in skin, per surface area: 31 ng cm-2
[2]; mean of exposed fish, Table S15
  Concentration in mucus: 15 ng cm-2
[2]; methanol rinse normalized to fish surface area, mean of six fish (RSD %)
  Concentration in mucus: 15 (24) ng cm^–2
[2]; wet weight, mean of fish (RSD %), 7 d exposure
  Concentration in gills: 1190 (16) ng g^–1
[2]; wet weight, mean of six fish (RSD % in brackets), 7 d exposure, Q10 below LOQ
  Concentration in blood: 330 (23) ng g^–1
[2]; [10]
  Concentration in liver: 3900 (49) ng g^–1
  Concentration in muscle: 160 (19) ng g^–1
  Concentration in skin: 390 (40) ng g^–1
[4]; [8]
  Apparent bioconcentration factor (BCFapp): 5.4 L kg-1 wet weight
[5]
  Log KMW,C (membrane-water partition coefficient of the charged form): 3.07
